Read-outs that look alike come from different tables or passages of the source.
What was measured:
[1] = test system: clonidine-induced aggressive behavior; assay: Effect on Clonidine-Induced Aggressive Behavior (number of biting attacks during 30 minutes); format: in vivo, male ddY mice; settings: po; for Number of the Biting Attacks (mean ± S.E.M.), Test Compound-Treated Group: 60 min before clonidine 20 mg/kg ip, 30 min count
Experimental: The effect of a test compound on the aggressive behavior induced by intraperitoneal administration of clonidine was investigated. […] The experiment was performed by using several groups of male ddY mice (weighing 20 to 25 g, Japan SLC), each group consisting of two mice. The test compound was suspended in injectable distilled water (Otsuka Pharmaceutical Co., Ltd.) containing Tween 80 [polyoxyethylene (20) sorbitan monooleate]. Clonidine hydrochloride (Sigma Co.) was dissolved in physiological saline solution (Otsuka Pharmaceutical Co., Ltd.). The test compound suspension and the control suspension were orally administered to separate groups of the mice (0.1 ml per 10 g of body weight). Sixty minutes after the oral administration of the test compound, clonidine hydrochloride (20 mg/kg) was intraperitoneally injected. The number of biting attacks during 30 minutes after clonidine treatment was counted. The effect of the compound was evaluated by comparing the average number of biting attacks of the test compound-administered groups with that of control groups (Statistical comparison: Student's t-test).

ddY-strain male mice = assay: Acute Toxicity Test (minimum lethal dose, oral); format: in vivo; settings: seven days after administration
Experimental: Test compounds were orally administered to groups of ddY-strain male mice weighing 20±1 g, each group consisting of three mice. Seven days after the administration, minimum lethal dose (MLD) of each compound was determined by observing the mortality.

[2] = Mus musculus, 2.5 mg/kg, read-out: Number of the Attacks of Test Compound-Treated Group/Number of the Attacks of Control Group
[3] = Mus musculus, 10 mg/kg, read-out: Number of the Attacks of Test Compound-Treated Group/Number of the Attacks of Control Group
[4] = Mus musculus, 0.63 mg/kg, read-out: Number of the Attacks of Test Compound-Treated Group/Number of the Attacks of Control Group

Row | SMILES | Number of the Biting Attacks (mean ± S.E.M.), Test Compound-Treated Group ([1]; 2.5 mg/kg) | MLD (minimum lethal dose) (ddY-strain male mice) [mg/kg] | Number of the Biting Attacks (mean ± S.E.M.), Test Compound-Treated Group ([1]; 10 mg/kg) | further results
1 | CCCn1c(=O)c2c(nc(/C=C/c3ccc(OC)c(OC)c3)n2C)n(CCC)c1=O [Compound 1, (E)-8-(3,4-Dimethoxystyryl)-7-methyl-1,3-dipropylxanthine] | 27.5 ± 7.3 | > 300 |  | response vs control in vivo at 2.5 mg/kg [1, 2]: 480%
2 | COc1cc(/C=C/c2nc3c(c(=O)n(C)c(=O)n3C)n2C)cc(OC)c1OC [Compound 2, (E)-8-(3,4,5-trimethoxystyryl)caffeine] |  | > 300 |  | Number of the Biting Attacks (mean ± S.E.M.), Test Compound-Treated Group ([1]; 1.25 mg/kg): 29.0 ± 7.9; response vs control in vivo at 1.25 mg/kg ([1]; Mus musculus, 1.25 mg/kg, read-out: Number of the Attacks of Test Compound-Treated Group/Number of the Attacks of Control Group): 470%
3 | CCCn1c(=O)c2c(nc(/C=C/c3ccccc3)n2C)n(CCC)c1=O [Compound 3, (E)-7-Methyl-1,3-dipropyl-8-styrylxanthine] |  | > 300 | 26.1 ± 5.42 | response vs control in vivo at 10 mg/kg [1, 3]: 340%
4 | CCn1c(=O)c2c(nc(/C=C/c3cc(OC)c(OC)c(OC)c3)n2C)n(CC)c1=O [Compound 4, (E)-1,3-diethyl-7-methyl-8-(3,4,5-trimethoxystyryl)xanthine] | 36.9 ± 7.81 | > 300 | 51.3 ± 9.37 | Number of the Biting Attacks (mean ± S.E.M.), Test Compound-Treated Group ([1]; 0.63 mg/kg): 25.3 ± 4.51; response vs control in vivo at 0.63 mg/kg [1, 4]: 970%; response vs control in vivo at 2.5 mg/kg [1, 2]: 540%
5 | CCCn1c(=O)c2c(nc(/C=C/c3cc(OC)c(OC)c(OC)c3)n2C)n(CCC)c1=O [Compound 5, (E)-7-Methyl-1,3-dipropyl-8-(3,4,5-trimethoxystyryl)xanthine] |  | > 300 |  | Number of the Biting Attacks (mean ± S.E.M.), Test Compound-Treated Group ([1]; 5 mg/kg): 25.4 ± 7.71; response vs control in vivo at 5 mg/kg ([1]; Mus musculus, 5 mg/kg, read-out: Number of the Attacks of Test Compound-Treated Group/Number of the Attacks of Control Group): 350%
6 | CCCn1c(=O)c2c(nc(/C=C/c3ccc(OC)cc3)n2C)n(CCC)c1=O [Compound 6, (E)-8-(4-Methoxystyryl)-7-methyl-1,3-dipropylxanthine] |  | > 300 | 83.7 ± 10.95 | 
7 | C=CCn1c(=O)c2c(nc(/C=C/c3cc(OC)c(OC)c(OC)c3)n2C)n(CC=C)c1=O [Compound 7, (E)-1,3-Diallyl-7-methyl-8-(3,4,5-trimethoxystyryl)xanthine] | 40.1 ± 8.36 | > 300 |  | response vs control in vivo at 2.5 mg/kg [1, 2]: 640%
8 | CCCn1c(=O)c2c(nc(/C=C/c3ccc(OC)c(C)c3C)n2C)n(CCC)c1=O [Compound 14, (E)-8-(4-Methoxy-2,3-dimethylstyryl)-7-methyl-1,3-dipropylxanthine] | 40.7 ± 8.50 | > 300 |  | response vs control in vivo at 2.5 mg/kg [1, 2]: 730%
9 | CCCn1c(=O)c2c(nc(/C=C/c3ccc4c(c3)OCCO4)n2C)n(CCC)c1=O [Compound 18, (E)-8-[2-(1,4-Benzodioxan-6-yl)vinyl]-7-methyl-1,3-dipropylxanthine] | 8.6 ± 3.74 | > 300 | 26.2 ± 7.32 | response vs control in vivo at 2.5 mg/kg [1, 2]: 390%; response vs control in vivo at 10 mg/kg [1, 3]: 640%
10 | CCCn1c(=O)c2c(nc(/C=C/c3ccc(OC)c(OC)c3OC)n2C)n(CCC)c1=O [Compound 22, (E)-7-Methyl-1,3-dipropyl-8-(2,3,4-trimethoxystyryl)xanthine] |  | > 300 | 33.1 ± 5.18 | response vs control in vivo at 10 mg/kg [1, 3]: 680%
11 | CCCn1c(=O)c2c(nc(/C=C/c3ccc(OCC)cc3)n2C)n(CCC)c1=O [Compound 49, (E)-8-(4-Ethoxystyryl)-7-methyl-1,3-dipropylxanthine] |  | > 300 | 81.5 ± 13.97 | 
12 | C=CCn1c(=O)c2c(nc(/C=C/c3ccc(OC)c(OC)c3)n2C)n(CC=C)c1=O [Compound 70, (E)-1,3-Diallyl-8-(3,4-dimethoxystyryl)-7-methylxanthine] |  | > 100 | 60.3 ± 11.71 | response vs control in vivo at 10 mg/kg [1, 3]: 790%
13 | CCn1c(=O)c2c(nc(/C=C/c3ccc(OC)c(OC)c3)n2C)n(CC)c1=O [Compound 74, (E)-8-(3,4-Dimethoxystyryl)-1,3-diethyl-7-methylxanthine] | 51.3 ± 8.70 | > 300 | 73.3 ± 8.75 | Number of the Biting Attacks (mean ± S.E.M.), Test Compound-Treated Group ([1]; 0.63 mg/kg): 23.2 ± 5.19; response vs control in vivo at 0.63 mg/kg [1, 4]: 380%; response vs control in vivo at 2.5 mg/kg [1, 2]: 840%
14 | CCn1c(=O)c2c(nc(/C=C/c3ccc(OC)cc3OC)n2C)n(CC)c1=O [Compound 78, (E)-8-(2,4-Dimethoxystyryl)-1,3-diethyl-7-methylxanthine] |  | > 300 | 32.1 ± 7.31 | response vs control in vivo at 10 mg/kg [1, 3]: 610%
15 | CCn1c(=O)c2c(nc(/C=C/c3ccc(OC)c(OC)c3OC)n2C)n(CC)c1=O [Compound 80, (E)-1,3-Diethyl-7-methyl-8-(2,3,4-trimethoxystyryl)xanthine] | 59.3 ± 12.37 | > 300 | 67.5 ± 9.35 | Number of the Biting Attacks (mean ± S.E.M.), Test Compound-Treated Group ([1]; 0.63 mg/kg): 30.3 ± 7.00; response vs control in vivo at 0.63 mg/kg [1, 4]: 470%
16 | CCOC(=O)COc1ccc(/C=C/c2nc3c(c(=O)n(CC)c(=O)n3CC)n2C)cc1 [Compound 189, (E)-8-(4-Ethoxycarbonylmethoxystyryl)-1,3-diethyl-7-methylxanthine] |  | > 100 |  | 
17 | CCn1c(=O)c2c(nc(/C=C/c3ccc(OCC(=O)O)cc3)n2C)n(CC)c1=O [Compound 190, (E)-8-(4-Carboxymethoxystyryl)-1,3-diethyl-7-methylxanthine] |  | > 100 |  | 
18 | CCn1c(=O)c2[nH]c(/C=C/c3cccc(Oc4ccccc4)c3)nc2n(CC)c1=O [Compound 191, (E)-1,3-Diethyl-8-(3-phenoxystyryl)xanthine] |  | > 100 |  | 
19 | CCn1c(=O)c2c(nc(/C=C/c3cccc(Oc4ccccc4)c3)n2C)n(CC)c1=O [Compound 192, (E)-1,3-Diethyl-7-methyl-8-(3-phenoxystyryl)xanthine] |  | > 100 |  | 
20 | CCn1c(=O)c2[nH]c(/C=C/c3ccc(O)cc3)nc2n(CC)c1=O [Compound 193, (E)-1,3-Diethyl-8-(4-hydroxystyryl)xanthine] |  | > 100 |  | 
21 | CCn1c(=O)c2c(nc(/C=C/c3ccc(O)c(C)c3C)n2C)n(CC)c1=O [Compound 194, (E)-1,3-Diethyl-8-(4-hydroxy-2,3-dimethylstyryl)-7-methylxanthine] |  | > 100 |  | 
22 | Cn1c(=O)c2[nH]cnc2n(C)c1=O [theophylline, reference compound] |  |  | 18.6 ± 3.58 | response vs control in vivo at 10 mg/kg ([1]; Mus musculus, read-out: Number of the Attacks of Test Compound-Treated Group/Number of the Attacks of Control Group): 520%

From patent publication US5543415A, “Antidepressants” (Kyowa Hakko Kogyo Co., Ltd., priority 1992, dated 1996)
